# According to patent US20240050587A1, “LIPOSOMES COMPRISING ANTI-LOX ANTIBODY” (ISTITUTO SCIENTIFICO ROMAGNOLO PER LO STUDIO E LA CURA DEI …, priority 2019, published 2024):
# Structures can show the parent of a compound that is named as a salt.
# Key:
# [1] = tested on: MDA-MB-231 orthotopic xenograft; test: Survival study (Kaplan-Meier); assay type: in vivo, NU/NU nude mice; conditions: 55 days post treatment
# Protocol: Mice (n=10 per cohort) were sacrificed when the tumor volume reached 2000 mm^3 or when showing signs of morbidity. Data were analyzed using the Kaplan-Meier method. Comparisons among different treatment groups were performed using the log rank test for trend and considered significant with a p value less than 0.05.
# [2] = tested on: MDA-MB-231 orthotopic xenograft; test: Histological analysis (H&E) and collagen quantification of explanted tumors; assay type: in vivo, NU/NU nude mice; conditions: H&E sections of explanted tumors, 55 days post treatment; control 5%
# Protocol: (§1) Explanted mice organs (heart, liver, spleen, kidneys, lungs, tibia) and tumors were washed twice with PBS, embedded in a cryomold in O.C.T. (Tissue-Tek® O.C.T. Compound, Sakura® Finetek), and frozen at −80 degree. Ten μm-thick slides were obtained cutting tissues block with a cryostat at −20 degree. The slides were then stored at −20 degree until the analysis.
# (§2) Hematoxylin and eosin (H&E) staining was performed to evaluate the efficacy and safety of Lipo-EPI-LOX compared to the other treatment groups. Briefly the organs and tumor slides were thawed, hydrated and stained with H&E following the manufacturer's instructions. The stained slides were analyzed with an optical Zeiss Axioskop microscope (Carl Zeiss, Gottingen, Germany) equipped with a Polaroid camera.
# Tumors frozen 5-μm-thick slides were fixed for 5 min in formalin 10% solution, then washed and stained with Weigert's haematoxylin. Then the sections were stained with 0.1% (Direct Red 80) (Sigma Aldrich) picrosirius red in saturated aqueous solution of picric acid. The stained slides were analyzed with the NIS Elements software (Nikon Corporation, Tokyo, Japan).
# [3] = Safety: body weight change and H&E histology of hearts; assay type: in vivo, NU/NU nude mice
# Protocol: (§3) Tumor size and body weight were measured with caliper and a digital balance once a week. Tumor volume was calculated according to the formula (W×W×L)/2, where W and L represent the width and the length of tumor, respectively. Body weight change % was calculated were calculated by comparing weights at the start and end of therapy throught the formula throught the formula weight DO/weight D33%.
# as §1, §2
# [4] = tested on: collagen scaffold cultured with MDA-MB-231; test: Mechanical testing: stiffness of collagen scaffolds under unconfined uniaxial compression; assay type: cell-based, human; conditions: 72 h of treatment; CTR 67.3 kPa
# Source text: As previously described, an in-house built instrument prototype was developed by the inventors to apply a state of unconfined uniaxial compression to the collagen scaffolds. The applied stress (r, in kPa) could then be analyzed by dividing the applied force by the cross section of the sample. The applied force consisted of a pre-load of 1.41 kPa held constantly for 30 s; the full load of 5.97 kPa was then constantly applied for 30 s. The stiffness (compressive modulus, in kPa) of the collagen scaffold cultured with MDA-MB-231 and exposed for 72 h to all treatment groups was computed as the ratio between the increment of stress and increment of strain from the preload to the full load values. The samples were analyzed in air immediately after having been removed from the PBS where they were soaked. Five samples of each type were tested and each specimen was tested 10 times.
# [5] = tested on: MDA-MB-231 orthotopic xenograft; test: In vivo drug testing: tumor growth in orthotopic xenograft (caliper and BLI); parameters: species or system NU/NU nude mice; conditions: weekly i.v. 3.24 mg/Kg; caliper; mean ± spread
# Protocol: MDA-MB-231 labeled with luciferase probe (2×10^6 cells/100 μl matrigel) were orthotopically injected into the right mammary fad pad of female immunodeficient NU/NU nude mice [NU-Foxn1nu] 8-10 weeks old (Charles River Laboratories, Wilmington, MA, USA). NU/NU nude mice were housed five per cage at the HMRI animal facility, there were maintained under pathogen free conditions and on low-fluorescence diet according to the National Institutes of Health guidelines.
# as §3
# Furthermore, the impact on tumor growth was validated by performing bioluminescence imaging (BLI) of TNBC tumors at Day 0 and Day 33 (FIG. 4B, Figure S4 supportive information). This was performed in order to support the caliper measurements since the bioluminescent signal obtained from BLI is directly related to the viability of cells and could serve as metric to evaluate impact of therapy. The BLI quantification percentage was calculated throught the formula BLI DO/BLI D33%. […]
# [6] = human, clinical data [28]; cited from earlier work
smiles,measurement,setting,value
"COc1cccc2c1C(=O)c1c(O)c3c(c(O)c1C2=O)C[C@@](O)(C(=O)CO)C[C@@H]3O[C@H]1C[C@H](N)[C@@H](O)[C@H](C)O1 [Free EPI, epirubicin hydrochloride]",survival,[1],less than 50%
same,necrotic tumor cells,[2],20%
same,inflammatory infiltrate in myocardial tissue (cardiotoxicity),[3]; H&E hearts,increment of cellularity due to the inflammatory infiltrate
same,increase in body weight,"[3]; end of study, D33 versus D0, CTR 3.3%",3.7%
same,average compressive modulus (scaffold stiffness),[4],64.38 kPa
same,tumor volume (tumor growth),[5],1029 mm^3
same,plasma peak concentration,[6],3.4 µg/mL
